The test system of experiment [1] is control sera (pooled serum of ten healthy LUMC hospital workers; commercial negative donor pooled serum from the Dutch bloodbank). It counts as binding, human. Also on record: Binding of Control serum LUMC to linear peptides / Binding of Control serum Blood-bank to linear peptides / Binding of Control serum LUMC to looped peptides / Binding of Control Serum Blood-Bank to Looped peptides / Binding of Control serum LUMC to linear peptides of the protein M of SARS-CoV Urbani / Binding of Control serum Blood-bank to linear peptides of the protein M of SARS-CoV Urbani / Binding of Control serum LUMC to looped peptides of the protein M of SARS-CoV Urbani / Binding of Control Serum Blood-Bank to Looped peptides of the protein M of SARS-CoV Urbani: unit not given here.

Experiment [2] has as its system antibodies in sera from SARS patients (sera 1a, 1b, 2, 6, 37, 62, London, SARS-yellow, SARS-green). It counts as binding, human. Set-up: Binding of serum 6 to linear peptides of protein X1 of SARS-CoV Urbani / Binding of serum 37 to linear peptides of protein X1 of SARS-CoV Urbani / Binding of serum 6 to looped/cyclic peptide (PEPSCAN-ELISA) / Binding of serum 37 to looped/cyclic peptide (PEPSCAN-ELISA) / Binding of serum 37 to looped/cyclic peptides of protein X1 of SARS-CoV Urbani / Binding of serum 6 to linear peptides of protein X2 / Binding of serum 37 to linear peptides of protein X2 / Binding of serum 37 to looped/cyclic peptides of protein X2 of SARS-CoV Urbani / Binding of serum 6 to linear peptides of protein M of SARS-CoV Urbani / Binding of serum 37 to linear peptides of protein M of SARS-CoV Urbani / Binding of serum 6 to looped/cyclic peptides of protein M of SARS-CoV Urbani / Binding of serum 37 to looped/cyclic peptides of protein M of SARS-CoV Urbani / Binding of serum 6 to linear peptides of protein X3 of SARS-CoV Urbani / Binding of serum 37 to linear peptides of protein X3 of SARS-CoV Urbani / Binding of serum 37 to looped/cyclic peptides of protein X3 of SARS-CoV Urbani / Binding of serum 6 to linear peptides of protein X4 of SARS-CoV Urbani / Binding of serum 37 to linear peptides of protein X4 of SARS-CoV Urbani / Binding of serum 37 to looped/cyclic peptides of protein X4 of SARS-CoV Urbani / Binding of serum 6 to linear peptides of protein X5 of SARS-CoV Urbani / Binding of serum 37 to linear peptides of protein X5 of SARS-CoV Urbani / Binding of serum 37 to looped/cyclic peptides of protein X5 of SARS-CoV Urbani / Binding of serum 6 to linear peptides of protein N of SARS-CoV Urbani / Binding of serum 37 to linear peptides of protein N of SARS-CoV Urbani / Binding of serum 6 to linear peptide (PEPSCAN-ELISA) / Binding of serum 1a to looped/cyclic peptides of protein N of SARS-CoV Urbani / Binding of serum 1b to looped/cyclic peptides of protein N of SARS-CoV Urbani / Binding of serum 2 to looped/cyclic peptides of protein N of SARS-CoV Urbani / Binding of serum 6 to looped/cyclic peptides of protein N of SARS-CoV Urbani / Binding of serum 37 to looped/cyclic peptides of protein N of SARS-CoV Urbani / Binding of serum 62 to looped/cyclic peptides of protein N of SARS-CoV Urbani / Binding of serum London to looped/cyclic peptides of protein N of SARS-CoV Urbani / Binding of serum SARS-green to looped/cyclic peptides of protein N of SARS-CoV Urbani: unit not given here.

Experiment [3] relates to rabbit serum obtained by immunizing a rabbit with the SARS-CoV strain Frankfurt 1. It is filed as binding. Also on record: Binding of a rabbit serum to linear peptides / Binding of a rabbit serum to looped peptides / Rabbit serum linear peptides / Rabbit serum looped peptides / Binding of a rabbit serum to linear peptides of protein N of SARS-CoV Urbani (Rabbit serum linear peptides) / Binding of a rabbit serum to looped/cyclic peptides of protein N of SARS-CoV Urbani (Rabbit serum looped peptides): unit not given here.

In the case of LKILVRYNTRGNTYS, in experiment [1], the “Binding of Control Serum Blood-Bank to Looped peptides” value stood at 0.4, the “Binding of Control serum Blood-bank to linear peptides” value is given as 0.7, the “Binding of Control serum LUMC to linear peptides” value amounted to 0.5 and the “Binding of Control serum LUMC to looped peptides” value came to 0.6. Also, in experiment [2], the “Binding of serum 1a to linear peptides of protein X5 of SARS-CoV Urbani” value is listed as 0.7, the “Binding of serum 1a to looped/cyclic peptides of protein X5 of SARS-CoV Urbani” value stood at 0.5, the “Binding of serum 1b to linear peptides of protein X5 of SARS-CoV Urbani” value is 0.6 and the “Binding of serum 1b to looped/cyclic peptides of protein X5 of SARS-CoV Urbani” value is on record as 0.4. For the same sequence, in experiment [2], the “Binding of serum 2 to linear peptides of protein X5 of SARS-CoV Urbani” value is recorded as 0.8, the “Binding of serum 2 to looped/cyclic peptides of protein X5 of SARS-CoV Urbani” value was found to be 0.6, the “Binding of serum 6 to linear peptides of protein X5 of SARS-CoV Urbani” value was 0.8 and the “Binding of serum 6 to looped/cyclic peptides of protein X5 of SARS-CoV Urbani” value came to 0.5. In experiment [2], the “Binding of serum 37 to linear peptides of protein X5 of SARS-CoV Urbani” value turned out to be 0.7, the “Binding of serum 37 to looped/cyclic peptides of protein X5 of SARS-CoV Urbani” value was determined as 0.5, the “Binding of serum 62 to linear peptides of protein X5 of SARS-CoV Urbani” value turned out to be 0.8 and the “Binding of serum 62 to looped/cyclic peptides of protein X5 of SARS-CoV Urbani” value worked out at 0.7. Moreover, in experiment [2], the “Binding of serum London to linear peptides of protein X5 of SARS-CoV Urbani” value is on record as 0.7, the “Binding of serum London to looped/cyclic peptides of protein X5 of SARS-CoV Urbani” value is recorded as 0.2, the “Binding of serum SARS-green to linear peptides of protein X5 of SARS-CoV Urbani” value was 0.6 and the “Binding of serum SARS-green to looped/cyclic peptides of protein X5 of SARS-CoV Urbani” value worked out at 0.4. In addition, in experiment [2], the “Binding of serum SARS-yellow to linear peptides of protein X5 of SARS-CoV Urbani” value is 0.3 and the “Binding of serum SARS-yellow to looped/cyclic peptides of protein X5 of SARS-CoV Urbani” value amounted to 0.8. In addition, in experiment [3], the “Rabbit serum linear peptides” value is recorded as 0.9 and the “Rabbit serum looped peptides” value is given as 0.1.
On to LKQLLEQWNLVIGFL, for which, in experiment [1], the “Binding of Control Serum Blood-Bank to Looped peptides of the protein M of SARS-CoV Urbani” value is 0.7, the “Binding of Control serum Blood-bank to linear peptides of the protein M of SARS-CoV Urbani” value is listed as 0.7, the “Binding of Control serum LUMC to linear peptides of the protein M of SARS-CoV Urbani” value is listed as 0.3 and the “Binding of Control serum LUMC to looped peptides of the protein M of SARS-CoV Urbani” value is 0.7. For the same sequence, in experiment [2], the “Binding of serum 1a to linear peptides of protein M of SARS-CoV Urbani” value was determined as 0.7, the “Binding of serum 1a to looped/cyclic peptides of protein M of SARS-CoV Urbani” value was found to be 0.6, the “Binding of serum 1b to linear peptides of protein M of SARS-CoV Urbani” value turned out to be 0.5 and the “Binding of serum 1b to looped/cyclic peptides of protein M of SARS-CoV Urbani” value is listed as 0.6. In experiment [2], the “Binding of serum 2 to linear peptides of protein M of SARS-CoV Urbani” value was found to be 0.6, the “Binding of serum 2 to looped/cyclic peptides of protein M of SARS-CoV Urbani” value amounted to 0.4, the “Binding of serum 6 to linear peptides of protein M of SARS-CoV Urbani” value turned out to be 0.7 and the “Binding of serum 6 to looped/cyclic peptides of protein M of SARS-CoV Urbani” value was 0.8. In experiment [2], the “Binding of serum 37 to linear peptides of protein M of SARS-CoV Urbani” value is 0.7, the “Binding of serum 37 to looped/cyclic peptides of protein M of SARS-CoV Urbani” value is 0.5, the “Binding of serum 62 to linear peptides of protein M of SARS-CoV Urbani” value is 0.7 and the “Binding of serum 62 to looped/cyclic peptides of protein M of SARS-CoV Urbani” value stood at 0.7. Besides, in experiment [2], the “Binding of serum London to linear peptides of protein M of SARS-CoV Urbani” value was 1.0, the “Binding of serum London to looped/cyclic peptides of protein M of SARS-CoV Urbani” value worked out at 0.2, the “Binding of serum SARS-green to linear peptides of protein M of SARS-CoV Urbani” value amounted to 0.2 and the “Binding of serum SARS-green to looped/cyclic peptides of protein M of SARS-CoV Urbani” value is 0.4. In addition, in experiment [2], the “Binding of serum SARS-yellow to linear peptides of protein M of SARS-CoV Urbani” value worked out at 0.1 and the “Binding of serum SARS-yellow to looped/cyclic peptides of protein M of SARS-CoV Urbani” value came out at 0.7. For the same sequence, in experiment [3], the “Rabbit serum linear peptides” value is given as 0.2 and the “Rabbit serum looped peptides” value is given as 0.1.
LKTHRMCKYTQSTAL: in experiment [1], the “Binding of Control Serum Blood-Bank to Looped peptides” value was 0.7, the “Binding of Control serum Blood-bank to linear peptides” value worked out at 0.7, the “Binding of Control serum LUMC to linear peptides” value is 0.6 and the “Binding of Control serum LUMC to looped peptides” value was 0.6. Moreover, in experiment [2], the “Binding of serum 1a to linear peptides of protein X2” value stood at 0.8, the “Binding of serum 1a to looped/cyclic peptides of protein X2 of SARS-CoV Urbani” value worked out at 0.6, the “Binding of serum 1b to linear peptides of protein X2” value was 0.6 and the “Binding of serum 1b to looped/cyclic peptides of protein X2 of SARS-CoV Urbani” value was found to be 0.6. In addition, in experiment [2], the “Binding of serum 2 to linear peptides of protein X2” value amounted to 0.5, the “Binding of serum 2 to looped/cyclic peptides of protein X2 of SARS-CoV Urbani” value came out at 0.4, the “Binding of serum 6 to linear peptides of protein X2” value came out at 0.6 and the “Binding of serum 6 to looped/cyclic peptides of protein X2 of SARS-CoV Urbani” value is recorded as 0.5. Besides, in experiment [2], the “Binding of serum 37 to linear peptides of protein X2” value worked out at 0.7, the “Binding of serum 37 to looped/cyclic peptides of protein X2 of SARS-CoV Urbani” value was found to be 0.5, the “Binding of serum 62 to linear peptides of protein X2” value amounted to 0.7 and the “Binding of serum 62 to looped/cyclic peptides of protein X2 of SARS-CoV Urbani” value came to 0.6. In experiment [2], the “Binding of serum London to linear peptides of protein X2” value amounted to 0.5, the “Binding of serum London to looped/cyclic peptides of protein X2 of SARS-CoV Urbani” value came out at 0.2, the “Binding of serum SARS-green to linear peptides of protein X2” value is on record as 0.5 and the “Binding of serum SARS-green to looped/cyclic peptides of protein X2 of SARS-CoV Urbani” value was 0.3. Also, in experiment [2], the “Binding of serum SARS-yellow to linear peptides of protein X2” value amounted to 0.8 and the “Binding of serum SARS-yellow to looped/cyclic peptides of protein X2 of SARS-CoV Urbani” value stood at 0.6. Moreover, in experiment [3], the “Binding of a rabbit serum to linear peptides” value came to 0.4 and the “Binding of a rabbit serum to looped peptides” value is listed as 0.5.
Consider LKVTAFQHQNSKKTT, for which, in experiment [1], the “Binding of Control Serum Blood-Bank to Looped peptides” value is given as 0.3, the “Binding of Control serum Blood-bank to linear peptides” value stood at 0.4, the “Binding of Control serum LUMC to linear peptides” value worked out at 0.8 and the “Binding of Control serum LUMC to looped peptides” value was 0.4. Also, in experiment [2], the “Binding of serum 1a to linear peptides of protein X2” value stood at 0.5, the “Binding of serum 1a to looped/cyclic peptides of protein X2 of SARS-CoV Urbani” value turned out to be 0.3, the “Binding of serum 1b to linear peptides of protein X2” value worked out at 0.4 and the “Binding of serum 1b to looped/cyclic peptides of protein X2 of SARS-CoV Urbani” value turned out to be 0.2. Further, in experiment [2], the “Binding of serum 2 to linear peptides of protein X2” value is on record as 0.3, the “Binding of serum 2 to looped/cyclic peptides of protein X2 of SARS-CoV Urbani” value amounted to 0.1, the “Binding of serum 6 to linear peptides of protein X2” value is listed as 0.3 and the “Binding of serum 6 to looped/cyclic peptides of protein X2 of SARS-CoV Urbani” value is on record as 0.1. Moreover, in experiment [2], the “Binding of serum 37 to linear peptides of protein X2” value is on record as 0.5, the “Binding of serum 37 to looped/cyclic peptides of protein X2 of SARS-CoV Urbani” value is 0.2, the “Binding of serum 62 to linear peptides of protein X2” value is 0.3 and the “Binding of serum 62 to looped/cyclic peptides of protein X2 of SARS-CoV Urbani” value was 0.4. In addition, in experiment [2], the “Binding of serum London to linear peptides of protein X2” value was 0.2, the “Binding of serum London to looped/cyclic peptides of protein X2 of SARS-CoV Urbani” value was 0.1, the “Binding of serum SARS-green to linear peptides of protein X2” value is on record as 0.2 and the “Binding of serum SARS-green to looped/cyclic peptides of protein X2 of SARS-CoV Urbani” value worked out at 0.1. In experiment [2], the “Binding of serum SARS-yellow to linear peptides of protein X2” value is on record as 0.7 and the “Binding of serum SARS-yellow to looped/cyclic peptides of protein X2 of SARS-CoV Urbani” value was 0.2. In experiment [3], the “Binding of a rabbit serum to linear peptides” value stood at 0.6 and the “Binding of a rabbit serum to looped peptides” value was 0.3.

For the origin of these results see patent publication US20070128217A1 (priority 2003, published 2007).
